Results on twelve compounds are retold here after ChEMBL document CHEMBL1132775, “N1-(Benzenesulfonyl)tryptamines as novel 5-HT6 antagonists” (Bioorg Med Chem Lett, 2000).

Molecules are shown by their SMILES.

For experiment [1], the target named is 5-hydroxytryptamine receptor 1B (Homo sapiens, UniProt P28222). The experiment is described as follows: Compound was evaluated for its binding affinity for human 5-hydroxytryptamine 1B receptor.
The target in experiment [2] is 5-hydroxytryptamine receptor 1E (Homo sapiens, UniProt P28566). The experiment is described as follows: Compound was evaluated for its binding affinity for human 5-hydroxytryptamine 1E receptor.
5-hydroxytryptamine receptor 1E, sequence (P28566 whole entry): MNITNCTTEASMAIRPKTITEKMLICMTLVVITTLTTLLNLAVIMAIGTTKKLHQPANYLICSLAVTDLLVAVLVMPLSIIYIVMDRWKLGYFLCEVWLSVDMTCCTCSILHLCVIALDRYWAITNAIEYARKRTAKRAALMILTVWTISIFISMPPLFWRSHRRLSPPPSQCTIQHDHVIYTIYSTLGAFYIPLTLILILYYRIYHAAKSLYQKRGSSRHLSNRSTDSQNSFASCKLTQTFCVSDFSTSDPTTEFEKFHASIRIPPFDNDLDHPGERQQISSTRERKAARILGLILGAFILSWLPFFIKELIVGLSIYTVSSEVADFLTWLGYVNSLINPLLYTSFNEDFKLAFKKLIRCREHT
Experiment [3] deals with T1, 5-hydroxytryptamine receptor 6 (Homo sapiens, UniProt P50406). The experiment is described as follows: Binding affinity against human 5-hydroxytryptamine 6 receptor stably transfected to HEK 293 human embryonic kidney cells using [3H]-lysergic acid diethylamide as radioligand. The class given is cell-based, HEK293.
T1 sequence (P50406 whole entry): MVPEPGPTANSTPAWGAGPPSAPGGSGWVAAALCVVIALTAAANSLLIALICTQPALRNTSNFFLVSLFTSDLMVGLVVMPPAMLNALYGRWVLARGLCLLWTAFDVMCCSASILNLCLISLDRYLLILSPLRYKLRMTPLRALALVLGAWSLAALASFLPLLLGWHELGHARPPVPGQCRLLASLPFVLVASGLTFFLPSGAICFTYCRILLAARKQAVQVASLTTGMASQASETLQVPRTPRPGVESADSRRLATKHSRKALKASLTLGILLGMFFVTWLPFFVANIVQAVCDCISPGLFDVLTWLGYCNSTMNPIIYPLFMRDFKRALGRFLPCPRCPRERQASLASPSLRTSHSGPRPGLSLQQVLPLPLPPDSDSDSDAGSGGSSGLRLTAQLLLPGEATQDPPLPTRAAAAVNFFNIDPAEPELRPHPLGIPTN
The target in experiment [4] is 5-hydroxytryptamine receptor 2A (Rattus norvegicus, UniProt P14842). The experiment is described as follows: Compound was evaluated for its binding affinity for rat 5-hydroxytryptamine 2A receptor.
5-hydroxytryptamine receptor 2A, sequence (P14842 whole entry): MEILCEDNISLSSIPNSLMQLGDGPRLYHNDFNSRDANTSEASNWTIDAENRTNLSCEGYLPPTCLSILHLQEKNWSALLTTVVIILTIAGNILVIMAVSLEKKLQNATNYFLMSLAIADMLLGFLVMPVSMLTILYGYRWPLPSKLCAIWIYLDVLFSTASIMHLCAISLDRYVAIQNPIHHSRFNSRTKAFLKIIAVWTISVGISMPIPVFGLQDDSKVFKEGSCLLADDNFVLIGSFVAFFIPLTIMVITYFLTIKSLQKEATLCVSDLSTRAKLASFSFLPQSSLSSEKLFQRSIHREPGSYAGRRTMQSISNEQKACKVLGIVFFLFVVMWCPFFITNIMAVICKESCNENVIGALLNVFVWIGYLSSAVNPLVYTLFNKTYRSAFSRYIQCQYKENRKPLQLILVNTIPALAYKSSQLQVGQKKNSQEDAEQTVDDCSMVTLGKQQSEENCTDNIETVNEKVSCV
Experiment [5] can be described thus: Compound was evaluated for its binding affinity for human 5-hydroxytryptamine 3 receptor.
The target in experiment [6] is 5-hydroxytryptamine receptor 7 (Homo sapiens, UniProt P34969). The experiment is described as follows: Compound was evaluated for its binding affinity for human 5-hydroxytryptamine 7 receptor.
5-hydroxytryptamine receptor 7, sequence (P34969 whole entry): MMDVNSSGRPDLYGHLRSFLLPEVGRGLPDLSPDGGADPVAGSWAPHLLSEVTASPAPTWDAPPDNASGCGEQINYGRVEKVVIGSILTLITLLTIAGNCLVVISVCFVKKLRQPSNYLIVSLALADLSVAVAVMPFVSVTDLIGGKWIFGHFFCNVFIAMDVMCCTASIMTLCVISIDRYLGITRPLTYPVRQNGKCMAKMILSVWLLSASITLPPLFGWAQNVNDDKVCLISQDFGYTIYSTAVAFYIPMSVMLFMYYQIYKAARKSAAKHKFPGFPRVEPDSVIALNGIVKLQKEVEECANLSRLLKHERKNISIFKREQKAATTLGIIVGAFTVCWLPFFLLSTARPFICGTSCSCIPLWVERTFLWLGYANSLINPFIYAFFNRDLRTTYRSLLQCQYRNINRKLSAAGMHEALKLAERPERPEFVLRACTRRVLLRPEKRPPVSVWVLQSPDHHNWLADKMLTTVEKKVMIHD
In experiment [7] the target is T2, 5-hydroxytryptamine receptor 2C (Rattus norvegicus, UniProt P08909).
T2 sequence (P08909 whole entry): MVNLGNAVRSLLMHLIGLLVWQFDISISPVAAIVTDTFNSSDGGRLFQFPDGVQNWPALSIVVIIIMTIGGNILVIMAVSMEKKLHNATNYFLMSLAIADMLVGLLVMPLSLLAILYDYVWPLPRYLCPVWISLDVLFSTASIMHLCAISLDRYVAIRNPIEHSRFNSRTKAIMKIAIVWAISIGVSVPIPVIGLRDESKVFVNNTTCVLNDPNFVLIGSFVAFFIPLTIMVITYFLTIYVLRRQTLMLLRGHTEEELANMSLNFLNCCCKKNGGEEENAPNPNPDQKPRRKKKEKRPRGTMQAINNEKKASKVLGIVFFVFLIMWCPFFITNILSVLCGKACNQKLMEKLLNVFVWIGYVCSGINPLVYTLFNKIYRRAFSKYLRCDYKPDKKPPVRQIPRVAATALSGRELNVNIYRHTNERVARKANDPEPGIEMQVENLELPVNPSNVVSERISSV
The experiment is described as follows: Compound was evaluated for its binding affinity for rat 5-hydroxytryptamine 2C receptor.

Experiment [8] has as its target T1, 5-hydroxytryptamine receptor 6.

5-hydroxytryptamine receptor 1B, sequence (P28222 whole entry): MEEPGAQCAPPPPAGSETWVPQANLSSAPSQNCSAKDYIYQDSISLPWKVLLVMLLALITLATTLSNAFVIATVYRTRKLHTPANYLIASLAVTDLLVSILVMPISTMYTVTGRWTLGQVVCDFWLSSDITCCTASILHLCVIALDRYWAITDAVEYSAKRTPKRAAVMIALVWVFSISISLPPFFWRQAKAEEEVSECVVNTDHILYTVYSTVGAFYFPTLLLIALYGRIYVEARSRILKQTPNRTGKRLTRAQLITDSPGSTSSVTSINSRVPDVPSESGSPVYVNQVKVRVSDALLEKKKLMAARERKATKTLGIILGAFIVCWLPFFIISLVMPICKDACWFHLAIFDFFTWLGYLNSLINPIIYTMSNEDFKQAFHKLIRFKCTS

As for `COc1ccc2c(c1)c(CCN(C)C)cn2S(=O)(=O)c1ccccc1`, the inhibitory constant (Ki) – broadly, the equilibrium dissociation constant of an inhibitor or competing ligand from its target – was 9210 nM in experiment [1]; 4220 nM in experiment [2]; 2.3 nM in experiment [3]; 130 nM in experiment [4]; 2390 nM in experiment [5]; 600 nM in experiment [6]. Further, the Ki in experiment [7] was found to be 23 nM. The pA2 (in general, the negative logarithm of the molar antagonist concentration that doubles the agonist concentration needed for the same response) in experiment [8] was determined as 8.88.
As for `COc1ccc(S(=O)(=O)n2cc(CCN(C)C)c3cccc(OC)c32)cc1`, in experiment [3], affinity was put at a Ki of 93 nM.
Turning to `COc1ccc(OC)c(S(=O)(=O)n2cc(CCN(C)C)c3ccc(OC)cc32)c1`, the Ki in experiment [3] is 9.5 nM.
`COc1ccc(OC)c(S(=O)(=O)n2cc(CCN(C)C)c3c(OC)cccc32)c1` came in with a Ki in experiment [3] of 7.4 nM.
As to `COc1ccc2c(c1)c(CCN(C)C)cn2S(=O)(=O)c1ccc2ccccc2c1`, the inhibition constant (Ki) in experiment [3] amounted to 1.6 nM.
The same measure, in the same setting: as for `COc1ccc2c(c1)c(CCN(C)C)cn2S(=O)(=O)c1ccc(Cl)cc1`, the figure is 3.1 nM; as for `COc1ccc(S(=O)(=O)n2cc(CCN(C)C)c3cc(OC)ccc32)cc1`, 8 nM.
`COc1ccc(OC)c(S(=O)(=O)n2cc(CCN(C)C)c3cc(OC)ccc32)c1` registered a Ki in experiment [3] of 1.3 nM.
Still for that read-out and setting: with `COc1ccc2c(c1)c(CCN(C)C)cn2S(=O)(=O)c1cccc2ccccc12` the figure was 0.9 nM; with `COc1cccc2c(CCN(C)C)cn(S(=O)(=O)c3ccc(Cl)cc3)c12`, 45 nM; with `COc1ccc(OC)c(S(=O)(=O)n2cc(CCN(C)C)c3cccc(OC)c32)c1`, 183 nM.
Same read-out and setting: as for `COc1cccc2c(CCN(C)C)cn(S(=O)(=O)c3ccc4ccccc4c3)c12`, the figure is 5 nM.
